Test results: patent publication US20260224555A1, “NEW PHENYLQUINOLONE COMPOUND HAVING ANTIBACTERIAL AND ANTI-CANCER FUNCTIONS AND PREPARATION THEREOF” (AlphaMol Science Ltd (Shanghai), priority 2022, published 2026)
Converted amounts (≈) assume the structure as drawn. Like-named read-outs stand apart in the source and are kept apart here.

Assays:
E. coli ATCC 25922 = test: In vitro antibacterial activity assay (MIC, broth dilution); format: cell-based; conditions: Escherichia coli, ATCC25922
Text: (§1) The method used to indicate the activity of the compounds in this example is to record the minimum inhibitory concentration (MIC) of the compounds against bacteria. The specific experimental method is as follows:
(§2) 1. The bacterial liquid cultured from a single colony was taken, and diluted into autoclaved CAMHB broth in a ratio of 1:1000, and mixed well.
(§3) 2. The prepared drug solution was filtered through a sterile 0.22 µm syringe filter and placed in a sterile EP tube for later use.
(§4) 3. A 96-well plate was taken, and 20 µL of drug solution ([…]) was added to each well in the first column of the 96-well plate. Then, 180 µL of diluted bacterial liquid was added and mixed well (Perform 3 replicate rows for each drug).
(§5) The same process was performed for the hydrochloride drug.
(§6) 4. 100 μL of diluted bacterial liquid was added to each well in the remaining 11 columns of the 96-well plate. Drugs are the same as above.
(§7) 5. Serial dilution: 100 μL of liquid was taken from the first column to the second column, mixed well, then 100 μL of liquid was taken from the second column to the third column, mixed well, and so on, sequentially diluting down to the last column (column 12). After mixing column 12 well, 100 μL of liquid thereof was discarded. The drug concentration in each well was decreased by two-fold serially (the concentration in the first well is 40 μg/mL).
(§8) 6. Blank CAMHB broth without added bacteria liquid was added to 3 blank wells in the 96-well plate, as negative control.
(§9) 7. The diluted bacterial liquid was added to 3 blank wells in the 96-well plate, as positive control.
(§10) 8. Incubated at 37° C. for 16 hours.
(§11) 9. Results reading: the minimum inhibitory concentration is the minimum drug concentration at which no bacterial growth is visible to the naked eye and without turbidity.

S. aureus ATCC 43300 = test: as above; format: cell-based; conditions: Staphylococcus aureus
Text: as §1, §2, §3, §4, §5, §6, §7, §8, §9, §10, §11

[1] = system: Staphylococcus aureus ATCC43300; test: Resistance test of bacteria against compounds (serial induction, 21 days); format: cell-based
Protocol: This example provides a resistance test of bacteria against compounds, and the specific experimental method is as follows.
1. […] It was ensured that among the 6 final concentrations of the drug diluted into the wells, some were higher than the original MIC of the bacteria and some were lower than the original MIC of the bacteria.
2. Preparation of bacterial liquid: 10 mL of culture medium was taken and added to a sterilized plate using a pipette, then 100 µL of the above-mentioned passaged bacterial liquid was added, and mixed well for later use.
3. The above-mentioned diluted bacterial liquid was taken and added to a 96-well plate using a pipette, 180 μL per well, 3 wells per group, 6 groups in total. 20 μL of drug solution was added to each well (note: it is necessary to replace the pipette tip each time the drug is added), so that the final drug concentrations were […], respectively. The well with 200 μL of diluted bacterial liquid was used as the positive control well, and the well with 200 μL of culture medium was used as the negative control well.
The test object was Staphylococcus aureus (S. aureus).

Hela = test: In vitro anticancer activity test (MTT cell proliferation); format: cell-based; conditions: Homo sapiens, average proliferation inhibition rate at the dosage of 40 μM, read-out: Hela Average inhibition rate %
Protocol: (§12) The anticancer activity of the compounds was tested using an in vitro cancer cell tests. The specific test method is as follows:
(§13) 1. Cell recovery and culture method: the cryovial was taken out from the liquid nitrogen container firstly, soaked directly in 37° C. warm water, and shaked from time to time to let it thaw as soon as possible. Then, the cryovial was transferred to a clean bench, and the lid was open. The cell suspension was taken into a centrifuge tube using a rubber-tipped dropper and more than 10 times the culture medium was added, mixed well, and centrifuged at 50 g for 5 minutes. Then, the supernatant was discarded, complete culture medium containing 10% fetal bovine serum was added to resuspend the cells, the cells was counted, the cell density was adjusted, and then inoculated into a culture bottle. The culture bottle was placed in a cell culture incubator at 5% CO2 and 37° C. The complete culture medium was replaced once the next day and the culture was continued.
(§14) 2. Cell passaging method: adherent cells in the logarithmic growth phase were placed in a clean bench, the original culture medium was discarded, and washed three times with 1×PBS. An appropriate amount of 0.25% trypsin digestion solution was added to moisten the cells, and then the trypsin solution was aspirated. The cells were placed in a cell culture incubator at 5% CO2 and 37° C. for digestion for a suitable time, and observed under a microscope. When 90% of the cells become round, the cells were moved immediately to the clean bench and complete culture medium was added to terminate digestion. Then, the cells were dislodged by pipetting up and down with a rubber-tipped dropper to single cells. The cells were counted, and the cell density was adjusted. The cells were inoculated into a suitable culture bottle or dish, added enough complete culture medium, and placed in a cell culture incubator at 5% CO2 and 37° C. for static culture.
(§15) For suspension cells in the logarithmic phase, the original culture medium was directly centrifuged at 50 g for 5 minutes, the supernatant was discarded, and the cells were washed once with PBS and centrifuged. After discarding the supernatant, the complete culture medium was added and the cells were dispersed using a rubber-tipped dropper. The cells are counted, and the cell density was adjusted. The cells were inoculated into appropriate culture bottles or culture dishes, and sufficient complete culture medium was added, and the cells were cultured in a cell culture incubator at 5% CO2 and 37° C.
(§16) 3. Cell proliferation assay: cells in good state in logarithmic phase were taken and appropriate amount of the cells was inoculated into 96-well plates according to the cell passage treatment method, with each well containing 180 μL complete medium. After the cells growth was recovered and the number of cells in each well is 5000±500, a drug was added for treatment.
After drug treatment during the experimental time, MTT solution with a final concentration of 0.5 mg/mL was added to each well, and placed in a cell culture incubator at 5% CO2 and 37° C. to allow a fully reaction of MTT with cells. After 4 hours, the solution in the 96-well plate was discarded, 100 µL of DMSO was added, and shaked to dissolve the formazan precipitated at the bottom of the plate, and the absorbance value of samples was detected at a wavelength of 570 nm using a microplate reader. Calculation method of cell viability rate:
Table 4 lists some compounds that have inhibitory effects against both of bacteria and cancer cells. In the table, the inhibitory effects against cancer cells are shown: the average proliferation inhibition rate (%) against cancer cells at the dosage of 40 μM.

[2] = system: Staphylococcus aureus ATCC43300; test: Systemic blood infection animal model; format: in vivo, mice; conditions: 4 mg/kg oral gavage, 3 times a day, 7 days
Protocol: (2) Sterile phosphate buffered saline (PBS) was used to prepare a 1×10^7 CFU/mL Staphylococcus aureus ATCC43300 bacterial suspension for later use; the drug dosage required for mice was calculated for each group, and solutions of Example 34 and solvent for gavage (400 or 200 μL of Tween 80 was mixed with Example 34, grinded with an agate mortar until it became transparent, and then 0.5% sodium carboxymethyl cellulose solution was added to reach the required concentration and volume of the test drug) were prepared for later use.
(3) Except for the blank group, 100 μL of the bacterial suspension prepared in step 2 was injected into the tail vein of each mouse.
(4) 2 hours after the challenge, the drugs prepared in step 2 were administered by oral gavage according to the groups, 3 times a day, 200 uL each time, with an interval of 8 hours, for a total of 7 days. Mice were administered by oral gavage with the drug solvent for the model group and the blank group.
(5) 8 h after the last administration, mice were euthanized by cervical dislocation, disinfected with 75% alcohol, and then necropsied under sterile conditions. The kidneys and livers were harvested, observed and photographed, and the weight was recorded.
(6) The kidneys and livers were placed in a sterile glass grinder and sterile PBS in a volume ten times the weight of the organs was added and grinded. The grinding solutions were taken out, 10-fold serially diluted, smeared to a TSA solid culture medium, and incubated at 37° C. for 16 hours, then the colonies were counted. The number of colonies of the organs was calculated to evaluate the therapeutic effect.

[3] = system: human acute monocytic leukemia cell THP-1; test: In vitro anticancer activity test (MTT cell proliferation); format: cell-based
Protocol: as §12, §13, §14, §15, §16
(§17) After drug treatment during the experimental time, MTT solution with a final concentration of 0.5 mg/mL was added to each well, and placed in a cell culture incubator at 5% CO2 and 37° C. to allow a fully reaction of MTT with cells. After 4 hours, the solution in the 96-well plate was discarded, 100 µL of DMSO was added, and shaked to dissolve the formazan precipitated at the bottom of the plate, and the absorbance value of samples was detected at a wavelength of 570 nm using a microplate reader. Calculation method of cell viability rate: […]

[4] = system: human acute myeloid leukemia cell MOLM-13; test: as above; format: cell-based
Protocol: as §12, §13, §14, §15, §16, §17

[5] = system: human liver cancer cell BLE-7402; test: as above; format: cell-based
Protocol: as §12, §13, §14, §15, §16, §17

[6] = system: human renal cancer cell OS-RC-2; test: as above; format: cell-based
Protocol: as §12, §13, §14, §15, §16, §17

A. baumannii ATCC 17978 = test: In vitro antibacterial activity assay (MIC, broth dilution); format: cell-based; conditions: Acinetobacter baumannii, ATCC17978; Table 2; read-out: G- bacteria MIC A. baumannii ATCC 17978
Text: as §1, §2, §3, §4, §5, §6, §7, §8, §9, §10, §11

E. feacium ATCC 700221 = test: as above; format: cell-based; conditions: read-out: G+ bacteria MIC E. feacium ATCC 700221
Text: as §1, §2, §3, §4, §5, §6, §7, §8, §9, §10, §11

P. aeruginosa ATCC 27853 = test: as above; format: cell-based; conditions: Pseudomonas aeruginosa, ATCC27853; Table 2; read-out: G- bacteria MIC P. aeruginosa ATCC 27853
Text: as §1, §2, §3, §4, §5, §6, §7, §8, §9, §10, §11

[7] = system: methicillin-resistant Staphylococcus aureus; format: in vivo, Kunming mice; conditions: for reduction of necrosis area compared with the control group: 4 consecutive days, MRSA skin infection in mice
Protocol: Kunming mice (20±2 g) were anesthetized with chloral hydrate and shaved, and then 50 μL of 4×10^7 CFU/mL of methicillin-resistant Staphylococcus aureus was subcutaneously injected. One day later, 100 μL of 0.02, 2 and 200 mg/kg of Example 34 were subcutaneously injected respectively, and 100 μL of normal saline was injected for the control group. The drug was administered for consecutive 4 days, and mice were euthanized on the 5th day, and the area of abscess was measured.

[8] = ATCC43300, Table 1, read-out: G+ bacteria MIC S. aureus ATCC 43300

O=C(O)c1cn(C2CC2)c2cc(N3CCNCC3)c(F)cc2c1=O [Ciprofloxacin, reference compound]
MIC (E. coli ATCC 25922; Table 4, read-out: E. coli ATCC 25922 MIC): ≤ 1 µg/mL
MIC (S. aureus ATCC 43300; ATCC43300, Table 4, read-out: S. aureus ATCC 43300 MIC): ≤ 1 µg/mL
resistance of bacteria in the subsequent culture ([1]; S. aureus ATCC43300, 21 days): increased rapidly
MIC at the end of the resistance experiment ([1]; period of 21 days, S. aureus ATCC43300): 128 µg/mL
inhibition at 40 µM (Hela): ≤ 10%
number of colonies of liver and kidney [2]: not apparent

O=C(O)c1cn(C2CC2)c2cc(N3CCNCC3)c(F)cc2c1=O [Reference compound 2 (Ciprofloxacin), reference compound]
IC50 [3]: > 100 µM
IC50 [4]: > 100 µM
IC50 [5]: > 100 µM
IC50 [6]: > 100 µM

O=C(O)c1cn(C2CC2)c2nc(-c3ccc(S(=O)(=O)NCCO)cc3)c(F)cc2c1=O [Example 18, 1-cyclopropyl-6-fluoro-7-(4-(N-(2-hydroxyethyl)aminosulfonyl)phenyl)-4-oxo-1,4-dihydro-1,8-naphthyridine-3-carboxylic acid]
MIC (A. baumannii ATCC 17978): 0.1 to 1 µg/mL (≈ 0.223 to 2.23 µM)
MIC (E. coli ATCC 25922; Table 2, read-out: G- bacteria MIC E. coli ATCC 25922): ≤ 0.1 µg/mL
MIC (E. feacium ATCC 700221; Table 1): 1 to 8 µg/mL (≈ 2.23 to 17.9 µM)
MIC (P. aeruginosa ATCC 27853): 0.1 to 1 µg/mL (≈ 0.223 to 2.23 µM)
MIC (S. aureus ATCC 43300; [8]): ≤ 0.1 µg/mL

O=C(O)c1cn(C2CC2)c2cc(-c3ccc(S(=O)(=O)NCCCl)cc3)c(F)cc2c1=O [Example 15, 7-(4-(N-(2-chloroethyl)sulfamoyl)phenyl)-1-cyclopropyl-6-fluoro-4-oxo-1,4-dihydroquinolin-3-carboxylic acid]
MIC (E. feacium ATCC 700221): > 8 µg/mL
MIC (S. aureus ATCC 43300; ATCC43300, read-out: G+ bacteria MIC S. aureus ATCC 43300): ≤ 0.1 µg/mL

O=C(O)c1cn(C2CC2)c2cc(-c3ccc(S(=O)(=O)NCCCCCCO)cc3)c(F)cc2c1=O [Example 29, 1-cyclopropyl-6-fluoro-7-(4-(N-(6-hydroxyhexyl)sulfamoyl)phenyl)-4-oxo-1,4-dihydroquinolin-3-carboxylic acid]
reduction of necrosis area compared with the control group ([7]; 0.02 mg/kg subcutaneous): 78.09%
reduction of necrosis area compared with the control group ([7]; 2 mg/kg subcutaneous): 81.21%
antibacterial effect in skin infection model ([7]; (corresponding to 0.02 mg/kg, 200 mg/kg)): good antibacterial effect
observation at the subcutaneous administration site ([7]; mouse, in vivo, sc, 200 mg/kg): certain bleeding symptom in body surface appeared at the subcutaneous administration site

CCCCCNS(=O)(=O)c1ccc(-c2c(F)cc3c(=O)c(C(=O)O)cn(C4CC4)c3c2Cl)cn1 [Example 20, 8-chloro-1-cyclopropyl-6-fluoro-4-oxo-7-(6-(N-pentylaminosulfonyl)pyridine-3-yl)-1,4-dihydroquinolin-3-carboxylic acid]
MIC (E. feacium ATCC 700221; Table 1): > 8 µg/mL
MIC (S. aureus ATCC 43300; [8]): ≤ 0.1 µg/mL
